Results: patent US20240343710A1, “HETEROCYCLIC COMPOUNDS AND METHODS OF USE THEREOF” (1cBio, Inc., priority 2023, published 2024)
Structures can show the parent of a compound that is named as a salt. Where two headings read alike, the source gives them in different places.

Assays:
recombinant human PARP1 = recombinant human PARP1 (Homo sapiens, UniProt P09874); experiment: PARP1 fluorescence polarization binding assay; details: GST-tagged PARP1 20 nM, PARP1-FL probe 3 nM
Experimental: In some embodiments, the biological assay is described in the Examples herein. In some embodiments, the biological assay measures PARP-1 binding by way of fluorescence polarization measurements. In some embodiments, binding of a test compound to recombinant human PARP-1 reduces the amount of binding of a fluorescent probe, and consequently reduces the detected level of fluorescence polarization. In some test compound stock solutions are prepared in a solvent, e.g., DMSO, and are serially diluted into a range of concentrations, e.g., 15 concentrations, 14 concentrations, 13 concentrations, 12 concentrations, 11 concentrations, 10 concentrations, 9 concentrations, 8 concentrations, 7 concentrations, 6 concentrations, or 5 concentrations, by a dilution factor, e.g., a 10-fold dilution factor, a 9-fold dilution factor, an 8-fold dilution factor, a 7-fold dilution factor, a 6-fold dilution factor, a 5-fold dilution factor, a 4-fold dilution factor, a 3-fold dilution factor, or a 2-fold dilution factor. In some embodiments, the serial dilutions, e.g., 100 nL of serial dilution, 90 nL of serial dilution, 80 nL of serial dilution, 70 nL of serial dilution, 60 nL of serial dilution, 50 nL of serial dilution, 30 nL of serial dilution, 20 nL of serial dilution, or 10 nL of serial dilution, are added to a multi-welled plate, e.g., a 1536-well plate, a 384-well plate, or a 96-well plate. In some embodiments, PARP-1, e.g., GST-tagged PARP-1, is diluted in assay buffer, e.g., 50 μL of assay buffer, 40 μL of assay buffer, e.g., 30 μL of assay buffer, 20 μL of assay buffer, 10 μL of assay buffer, or 5 μL of assay buffer, and is added to the plate. In some embodiments, the plate is centrifuged, e.g., at 1000 rpm for 1 min, and incubated, e.g., incubated for 30 minutes at room temperature (RT). In some embodiments, a fluorescent probe, e.g., 10 μL of 6 nM PARP1-FL (TOCRIS, Cat #6461), is diluted in an assay buffer and is added to the plate. In some embodiments, the final concentrations of PARP-1 and fluorescent probe are 20 nM and 3 nM, respectively, in a total volume of 20 μL. In some embodiments, the plate is centrifuged, e.g., at 1000 rpm for 1 minute, and the assay plate is incubated, e.g., for 4 h at RT. In some embodiments, the samples in each well are read using a plate reader, e.g., an Envision instrument using excitation=480 nm, and emission wavelength=FITC FP-P pol 535 nm & FITC FP-S pol 535 nm). In some embodiments, percent inhibition is calculated from mP values using Inhibition (%)=[1−(mPc−mPL)/(mPH−mPL)]×100%, where mPc, mPL, and mPH are the mP values of test compound, Low controls, and High controls, respectively. In some embodiments, binding IC50 values are calculated using XLFit (equation 201: y=A+((B−A)/(1+((x/C)^D))), where A=bottom, B=top, C=IC50, and D=slope) with a floating top and bottom for curves.
Compounds of the present disclosure were tested in a PARP1 fluorescence polarization binding assay at Pharmaron (Beijing, P.R. China). In this biochemical assay, binding of test compound to recombinant human PARP1 reduces the amount of binding of a fluorescent probe, and consequently reduces the detected level of fluorescence polarization. Test compound stock solutions were prepared in DMSO and then serially diluted into 10 concentrations by 3-fold dilution in a 384-well plate using a TECAN EVO200. Alternatively, a single concentration was prepared. 60 nL of each dilution was transferred to the plate using an Echo550 (Labcyte), and then 10 μL 40 nM GST-tagged PARP1 (BPS Bioscience, Cat #80501), diluted in assay buffer (50 mM Tris pH 8.0, 0.001% Triton X-100, 10 mM MgCl2, 150 mM NaCl), was added to the plate. After a centrifugation at 1000 rpm for 1 min, the assay plate was incubated for 30 min at RT. 10 μL 6 nM PARP1-FL (TOCRIS, Cat #6461), diluted using assay buffer, was then added to the plate. The final concentrations of PARP1 and PARP1-FL were 20 nM and 3 nM, respectively, in a total volume of 20 μL. […]

recombinant human PARP2 = recombinant human PARP2 (Homo sapiens, UniProt Q9UGN5); experiment: PARP2 fluorescence polarization binding assay; details: read-out: PARP2 % inh at 10 μM
[1] = tested on: DLD-1 BRCA2(−/−) colorectal adenocarcinoma cells; experiment: Cell viability assay (Cell Titer-Glo, 7 days), DLD-1 BRCA2(−/−); format: cell-based; details: Homo sapiens, 168 h, DLD-1 BRCA2(−/−) cells
From the text: (§1) In some embodiments, the biological assay measures the effects that compounds of the present disclosure may have on the viability of cells, e.g., the viability of cancer cells. In some embodiments, DLD-1 wild-type and DLD-1 BRCA2(−/−) colorectal adenocarcinoma cells, an isogenic pair of cell lines differing in the presence and absence, respectively, of both BRCA2 alleles, are used to measure the effect of the disclosed compounds on the viability of cancer cells. In some embodiments, the cells are harvested during the logarithmic growth period, counted, and seeded at a specified count in the wells of a 96- or 384-well cell culture plate. In some embodiments, after seeding, the cells are incubated, e.g., at 37° C., 5% CO2 overnight. In some embodiments, the cells are treated with compounds, e.g., with serially diluted test compounds at 8-11 concentrations within a desired concentration range, e.g., from 1 nM-10 μM, for the generation of dose-response curves. In some embodiments, the plate is further incubated, e.g., for another 3-7 days in a humidified incubator at 37° C. and 5% CO2. In some embodiments, cell viability is assessed by luminescence measurement after addition of Cell Titer-Glo reagent (Promega, Madison, Wis.) according to the manufacturer's instructions. In some embodiments, cell viability IC50 values are calculated using XLFit, equation 201: y=A+((B−A)/(1+((x/C)^D))), where A=bottom, B=top, C=IC50, and D=slope. In some embodiments, the effects of the test compounds on the viability of other cell lines such as MDA-MB-436, MDA-MB-231, SUM149PT, HCC1395, and UWB1.289 are determined in an analogous method.
(§2) Compounds of the present disclosure were tested for their effects on the viability of cancer cells. DLD-1 wild-type and DLD-1 BRCA2(−/−) colorectal adenocarcinoma cells, an isogenic pair of cell lines differing in the presence and absence, respectively, of both BRCA2 alleles, were used. The cells were harvested during the logarithmic growth period, counted, and seeded at 50 cells/well for DLD-1 wild-type and 200 cells/well for DLD-1 BRCA2(−/−) in a 384-well cell culture plate. After seeding, cells were incubated at 37° C., 5% CO2 overnight. Cells were treated with serially diluted test compounds at 10 concentrations (e.g., from 1.5 nM-30 μM) for generation of dose response curves, or at a single concentration. The plate was further incubated for another 7 days in a humidified incubator at 37° C. and 5% CO2. Cell viability was assessed by luminescence measurement after addition of Cell Titer-Glo reagent (Promega, Madison, Wis.) according to the manufacturer's instructions. Cell viability IC50 values were calculated using XLFit, equation 201. y=A+((B−A)/(1+((x/C)^D))), where A=bottom, B=top, C=IC50, and D=slope. IC50 values are shown in Table B and are presented in ranges, in which “+++”<300 nM, 300 nM≤“++”<3000 nM, and “+”≥3000 nM. Values for percent inhibition at 10 μM are also shown in Table B and are presented in ranges, in which “***”≥67%, 33%: “**”≤67%, and “*”<33%. Effects of the test compounds on the viability of other cell lines such as MDA-MB-436, MDA-MB-231, SUM149PT, HCC1395, and UWB1.289 are determined in an analogous method.

[2] = tested on: DLD-1 wild-type colorectal adenocarcinoma cells; experiment: Cell viability assay (Cell Titer-Glo, 7 days), DLD-1 wild-type; format: cell-based; details: Homo sapiens, 168 h, DLD-1 wild-type cells, read-out: DLD-1 wild-type % inh at 10 μM
From the text: as §1, §2

[3] = percent inhibition at 10 μM, fluorescence polarization, GST-tagged PARP2 20 nM, PARP1-FL probe 3 nM

Chain of recombinant human PARP2 (Q9UGN5 whole entry): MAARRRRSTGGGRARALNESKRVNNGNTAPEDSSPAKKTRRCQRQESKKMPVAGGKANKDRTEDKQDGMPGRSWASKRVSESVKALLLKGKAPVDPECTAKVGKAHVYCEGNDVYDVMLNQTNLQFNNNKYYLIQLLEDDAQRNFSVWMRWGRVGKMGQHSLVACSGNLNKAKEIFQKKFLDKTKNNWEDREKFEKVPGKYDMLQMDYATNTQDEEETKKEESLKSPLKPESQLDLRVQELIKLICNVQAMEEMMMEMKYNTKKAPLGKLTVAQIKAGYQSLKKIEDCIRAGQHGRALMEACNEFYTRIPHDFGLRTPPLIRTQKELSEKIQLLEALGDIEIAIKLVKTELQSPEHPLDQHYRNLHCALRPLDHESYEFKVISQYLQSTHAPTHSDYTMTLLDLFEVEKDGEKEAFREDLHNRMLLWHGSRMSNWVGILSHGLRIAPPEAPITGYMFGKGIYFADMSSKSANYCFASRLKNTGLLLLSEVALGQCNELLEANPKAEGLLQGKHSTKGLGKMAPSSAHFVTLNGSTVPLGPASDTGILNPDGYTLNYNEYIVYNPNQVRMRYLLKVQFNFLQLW
Chain of recombinant human PARP1 (P09874 whole entry): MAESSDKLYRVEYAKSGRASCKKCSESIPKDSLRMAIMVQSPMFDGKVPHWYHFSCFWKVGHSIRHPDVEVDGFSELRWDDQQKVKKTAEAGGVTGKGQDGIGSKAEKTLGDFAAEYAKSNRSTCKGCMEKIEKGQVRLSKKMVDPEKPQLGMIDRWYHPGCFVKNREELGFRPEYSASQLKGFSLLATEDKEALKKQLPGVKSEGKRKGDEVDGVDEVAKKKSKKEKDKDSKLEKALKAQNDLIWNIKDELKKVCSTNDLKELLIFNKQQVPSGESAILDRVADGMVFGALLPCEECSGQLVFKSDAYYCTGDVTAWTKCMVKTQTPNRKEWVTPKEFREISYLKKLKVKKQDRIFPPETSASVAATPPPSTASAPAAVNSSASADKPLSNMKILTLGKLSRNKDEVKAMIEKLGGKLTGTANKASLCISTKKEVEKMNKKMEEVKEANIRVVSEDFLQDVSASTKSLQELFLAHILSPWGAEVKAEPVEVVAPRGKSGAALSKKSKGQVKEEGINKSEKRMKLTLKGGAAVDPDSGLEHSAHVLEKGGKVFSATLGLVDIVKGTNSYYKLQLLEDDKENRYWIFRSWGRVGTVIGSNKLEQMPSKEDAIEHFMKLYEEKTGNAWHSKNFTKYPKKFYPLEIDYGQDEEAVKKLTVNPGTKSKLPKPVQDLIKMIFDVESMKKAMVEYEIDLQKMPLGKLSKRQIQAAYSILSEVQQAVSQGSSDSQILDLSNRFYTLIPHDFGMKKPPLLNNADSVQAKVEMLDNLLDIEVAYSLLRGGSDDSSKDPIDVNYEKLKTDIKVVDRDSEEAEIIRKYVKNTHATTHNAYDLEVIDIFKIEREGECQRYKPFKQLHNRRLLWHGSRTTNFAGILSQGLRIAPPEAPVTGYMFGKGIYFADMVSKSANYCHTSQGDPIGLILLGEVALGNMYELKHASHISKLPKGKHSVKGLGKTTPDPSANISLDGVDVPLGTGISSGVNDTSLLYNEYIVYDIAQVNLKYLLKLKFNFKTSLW

Row | Compound | IC50 (recombinant human PARP1) [nM] | inhibition at 10 µM (recombinant human PARP2; [3]) [%] | IC50 [1] [nM] | inhibition at 10 µM [2] [%] | inhibition at 10 µM (recombinant human PARP2) [%]
1 | CCNC(=O)Nc1ncnc(CN2CCN(c3ccc(C(=O)NC)nc3F)CC2)c1F [Compound 278, 5-(4-((6-(3-ethylureido)-5-fluoropyrimidin-4-yl)methyl)piperazin-1-yl)-6-fluoro-N-methylpicolinamide] | < 100 | < 33 | < 300 | < 33 | –
2 | CCNC(=O)Nc1nccc(CN2CCN(c3ccc(C(=O)NC)nc3F)CC2)c1F [Compound 81, 5-(4-((2-(3-ethylureido)-3-fluoropyridin-4-yl)methyl)piperazin-1-yl)-6-fluoro-N-methylpicolinamide] | < 100 | < 33 | < 300 | < 33 | –
3 | CCNC(=O)Nc1ncc(CN2CCN(c3ccc(C(=O)NC)nc3C)CC2)n1C [Compound 277, 5-(4-((2-(3-ethylureido)-1-methyl-1H-imidazol-5-yl)methyl)piperazin-1-yl)-N,6-dimethylpicolinamide] | < 100 | < 33 | ≥ 3000 | < 33 | –
4 | CNC(=O)Nc1cc(CN2CCN(c3ccc(C(=O)NC)nc3C)CC2)ccn1 [Compound 42, N,6-dimethyl-5-(4-((2-(3-methylureido)pyridin-4-yl)methyl)piperazin-1-yl)picolinamide trifluoroacetate] | < 100 | – | < 300 | < 33 | < 33
5 | CCNC(=O)Nc1ncc(CN2CCN(c3ccc(C(=O)NC)nc3C)CC2)o1 [Compound 246, 5-(4-((2-(3-ethylureido)oxazol-5-yl)methyl)piperazin-1-yl)-N,6-dimethylpicolinamide] | < 100 | < 33 | < 300 | < 33 | –
6 | CCNC(=O)Nc1cc(CN2CCN(c3ccc(C(=O)NC)nc3C#N)CC2)ccn1 [Compound 22, 6-cyano-5-(4-((2-(3-ethylureido)pyridin-4-yl)methyl)piperazin-1-yl)-N-methylpicolinamide] | < 100 | 33 to 67 | < 300 | < 33 | –
7 | CCNC(=O)Nc1cc(CN2CCN(c3ccc(C(=O)NC)nc3C)CC2)c(C)cn1 [Compound 70, 5-(4-((2-(3-ethylureido)-5-methylpyridin-4-yl)methyl)piperazin-1-yl)-N,6-dimethylpicolinamide formate] | < 100 | – | < 300 | < 33 | < 33
8 | CCNC(=O)Nc1cc(CN2CCN(c3ccc(C(=O)NC)nc3C(F)(F)F)CC2)ccn1 [Compound 21, 5-(4-((2-(3-ethylureido)pyridin-4-yl)methyl)piperazin-1-yl)-N-methyl-6-(trifluoromethyl)picolinamide trifluoroacetate] | < 100 | – | < 300 | < 33 | < 33
9 | CCNC(=O)Nc1nccc(CN2CCN(c3ccc(C(=O)NC)nc3C)CC2)c1C [Compound 260, 5-(4-((2-(3-ethylureido)-3-methylpyridin-4-yl)methyl)piperazin-1-yl)-N,6-dimethylpicolinamide hemiformate] | < 100 | – | 300 to 3000 | < 33 | < 33
10 | CCNC(=O)Nc1cc(CN2CCN(c3ccc(C(=O)NC)nc3F)CC2)ccn1 [Compound 9, 5-(4-((2-(3-ethylureido)pyridin-4-yl)methyl)piperazin-1-yl)-6-fluoro-N-methylpicolinamide] | < 100 | < 33 | < 300 | < 33 | –
11 | CCNC(=O)Nc1cc(CN2CCN3c4ccc(C(=O)NC)nc4OC[C@H]3C2)ccn1 [Compound 264, (R)-3-((2-(3-ethylureido)pyridin-4-yl)methyl)-N-methyl-1,2,3,4,4a,5-hexahydropyrazino[1,2-d]pyrido[2,3-b][1,4]oxazine-8-carboxamide] | < 100 | 33 to 67 | < 300 | < 33 | –
12 | CCNC(=O)Nc1cc(CN2CCN(c3ccc(C(=O)NC)c(=O)n3C)CC2)ccn1 [Compound 30, 6-(4-((2-(3-ethylureido)pyridin-4-yl)methyl)piperazin-1-yl)-N,1-dimethyl-2-oxo-1,2-dihydropyridine-3-carboxamide] | < 100 | < 33 | 300 to 3000 | < 33 | –
